According to patent publication US4468511A, “C-20- And C-23-Modified macrolide derivatives” (Eli Lilly and Company, priority 1983, dated 1984):
In brackets after ≈: the same amount, converted by molar mass. Read-outs that look alike come from different tables or passages of the source.

Experiments:
Escherichia coli EC14 = assay: MIC, standard agar-dilution assay; type: cell-based; conditions: agar-dilution; Escherichia coli EC14; read-out: MIC
Protocol: (§1) Certain of the derivatives are active against some gram-negative bacteria, such as Pasteurella species. The MIC's in Table II were determined by standard agar-dilution assays. The MIC's in Table III were obtained using a conventional broth-dilution microtiter test.

Escherichia coli TEM = assay: MIC, standard agar-dilution assay; type: cell-based; conditions: Escherichia coli
In short: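 Minimum inhibitory concentrations against Escherichia coli were measured with a standard agar-dilution method. The result for each derivative is the lowest concentration that inhibits bacterial growth, given in ug/mL.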

[1] = system: Klebsiella pneumoniae KAE; assay: MIC, standard agar-dilution assay; type: cell-based; conditions: agar-dilution; Klebsiella pneumoniae KAE; read-out: MIC
In short: (§2)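 The Klebsiella MIC was obtained by agar-dilution assay. Other organisms (Pasteurella hemolytica, Pasteurella multocida, Mycoplasma gallisepticum) were tested by conventional broth microdilution.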

[2] = system: Klebsiella pneumoniae X26; assay: MIC, standard agar-dilution assay; type: cell-based; conditions: agar-dilution; Klebsiella pneumoniae X26; read-out: MIC
In short: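 MICs for the two Pasteurella strains and the Mycoplasma strain were read from a broth-dilution microtiter test. The Klebsiella strain was tested on agar instead.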

[3] = system: Staphylococcus aureus V41; assay: MIC, standard agar-dilution assay; type: cell-based; conditions: Staphylococcus aureus, V41
Protocol: as §1

[4] = system: Staphylococcus aureus X1.1; assay: MIC, standard agar-dilution assay; type: cell-based; conditions: Staphylococcus aureus, X1.1
In short: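 Minimum inhibitory concentration against Staphylococcus aureus strain X1.1 was measured with a standard agar-dilution method. The result is reported as the MIC in ug/mL, i.e. the lowest compound concentration in agar that prevents visible growth of this organism.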

[5] = system: Streptococcus Group D X66; assay: MIC, standard agar-dilution assay; type: cell-based
Protocol: as §1

[6] = system: Streptococcus pneumoniae Park I; assay: MIC, standard agar-dilution assay; type: cell-based; conditions: Streptococcus pneumoniae
Protocol: as §1

[7] = system: Streptococcus pyogenes 9960; assay: MIC, standard agar-dilution assay; type: cell-based; conditions: agar-dilution, Streptococcus 9960, read-out: MIC
Protocol: as §1

[8] = system: Streptococcus pyogenes C203; assay: MIC, standard agar-dilution assay; type: cell-based; conditions: agar-dilution; Streptococcus pyogenes C203; read-out: MIC
Protocol: as §1

[9] = system: Haemophilus influenzae 76; assay: MIC, standard agar-dilution assay; type: cell-based; conditions: Haemophilus influenzae, 76
Protocol: (§3) The MIC's in Table II were determined by standard agar-dilution assays. The MIC's in Table III were obtained using a conventional broth-dilution microtiter test.

[10] = system: Haemophilus influenzae C.L.; assay: MIC, standard agar-dilution assay; type: cell-based; conditions: agar-dilution; Haemophilus influenzae C.L., Ampicillin-sensitive strain; read-out: MIC
Protocol: as §3

[11] = system: Staphylococcus aureus X400; assay: MIC, standard agar-dilution assay; type: cell-based; conditions: Staphylococcus aureus, X400
Protocol: as §3

[12] = system: Staphylococcus epidermidis EPI2; assay: MIC, standard agar-dilution assay; type: cell-based; conditions: Staphylococcus epidermidis, EPI2
Protocol: as §3

[13] = system: Staphylococcus aureus S13E; assay: microbe, parasite or virus in culture; type: cell-based
Protocol: as §3

[14] = system: Staphylococcus epidermidis EPI1; assay: microbe, parasite or virus in culture; type: cell-based; conditions: Staphylococcus epidermidis, EPI1
Protocol: as §3

[15] = system: Mycoplasma gallisepticum 34159; assay: MIC, conventional broth-dilution microtiter test; type: cell-based; conditions: Mycoplasmoides gallisepticum; broth-dilution microtiter; Mycoplasma gallisepticum 34159, Resistant strain; read-out: MIC
In short: as §2

[16] = system: Mycoplasma gallisepticum 41313; assay: MIC, conventional broth-dilution microtiter test; type: cell-based; conditions: Mycoplasmoides gallisepticum; broth-dilution microtiter; Mycoplasma gallisepticum 41313, Resistant strain; read-out: MIC
In short: as §2

Mycoplasma gallisepticum = assay: MIC, conventional broth-dilution microtiter test; type: cell-based; conditions: Mycoplasmoides gallisepticum
In short: as §2

Mycoplasma hyorhinis = assay: MIC, conventional broth-dilution microtiter test; type: cell-based; conditions: broth-dilution microtiter; Mycoplasma hyorhinis; read-out: MIC
In short: (§4)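 Minimum inhibitory concentrations are determined by conventional broth dilution in microtiter wells for Pasteurella and Mycoplasma isolates. For Klebsiella pneumoniae KAE, the standard agar-dilution assay is used.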

Mycoplasma synoviae = assay: MIC, conventional broth-dilution microtiter test; type: cell-based; conditions: Mycoplasmopsis synoviae; broth-dilution microtiter; Mycoplasma synoviae; read-out: MIC
In short: as §4

[17] = system: Pasteurella hemolytica 22C; assay: MIC, conventional broth-dilution microtiter test; type: cell-based; conditions: Pasteurella, 22C
In short: as §2

[18] = system: Pasteurella hemolytica 23C; assay: MIC, conventional broth-dilution microtiter test; type: cell-based; conditions: Pasteurella, 23C
In short: as §2

[19] = system: Pasteurella hemolytica 41D; assay: MIC, conventional broth-dilution microtiter test; type: cell-based; conditions: Pasteurella, 41D
In short: as §2

[20] = system: Pasteurella multocida 17E; assay: MIC, conventional broth-dilution microtiter test; type: cell-based; conditions: Pasteurella multocida, 17E
In short: as §2

[21] = system: Pasteurella multocida 22A; assay: MIC, conventional broth-dilution microtiter test; type: cell-based; conditions: Pasteurella multocida, 22A
In short: as §2

[22] = system: Pasteurella multocida 40G; assay: MIC, conventional broth-dilution microtiter test; type: cell-based; conditions: Pasteurella multocida, 40G
In short: as §2

[23] = system: Pasteurella multocida 60A; assay: MIC, conventional broth-dilution microtiter test; type: cell-based; conditions: Pasteurella multocida, 60A
In short: as §2

[24] = system: Pasteurella multocida 68C; assay: MIC, conventional broth-dilution microtiter test; type: cell-based; conditions: Pasteurella multocida, 68C
In short: as §2

Staphylococcus aureus = assay: MIC, conventional broth-dilution microtiter test; type: cell-based; conditions: broth-dilution microtiter, read-out: MIC
Protocol: as §1

Streptococcus sp. 80 = assay: MIC, conventional broth-dilution microtiter test; type: cell-based; conditions: Streptococcus, SP.80
Protocol: as §1

[25] = system: Streptococcus pyogenes C203; assay: Protection of mice experimentally infected with S. pyogenes C203; type: in vivo
Protocol: Some of the derivatives of this invention have shown in vivo antimicrobial activity against experimentally-induced infections in laboratory animals. When two doses of test compound were administered to mice experimentally infected with S. pyogenes C203, the activity observed was measured as an ED50 value [effective dose in mg/kg to protect 50% of the test animals: see Warren Wick, et al., J. Bacteriol. 81, 233-235 (1961)].

Pasteurella multocida = assay: Pasteurella infection in one-day old chicks; type: in vivo; conditions: subcutaneous, 30 mg/kg × 2, 1 and 4 hours post-challenge
Protocol: Certain of the formula 1 compounds of this invention have also shown in vivo activity against infections induced by gram-negative bacteria. Table V summarizes the results of tests in which illustrative compounds were evaluated against a Pasteurella infection in one-day old chicks. The compounds were administered parenterally after challenge of the chicks with Pasteurella multocida (0.1 ml of a 10^-4 dilution of a twenty-hour tryptose broth culture of an avian P. multocida given subcutaneously). In these tests, unless indicated otherwise, all non-medicated infected chicks died within 24 hours of Pasteurella challenge. In the tests summarized in Table V, the compounds were administered by subcutaneous injection at a dosage of 30 mg/kg, 1 and 4 hours post-challenge of the chicks with P. multocida.

CCC1CC(C)C(=O)C=CC(C)=CC(CN2CCCCCCC2)C(CC)OC(=O)CC(O)C(C)C1OC1OC(C)C(O)C(N(C)C)C1O (stereo not shown) [Compound 43, 23-Octahydroazocin-1-yl-20,23-dideoxy-20-dihydro-OMT]
MIC (Escherichia coli EC14): > 128 µg/mL
MIC (Escherichia coli TEM): 16 µg/mL (≈ 23.6 µM)
MIC [1]: > 128 µg/mL
MIC [2]: 4 µg/mL (≈ 5.89 µM)
MIC [3]: 0.5 µg/mL (≈ 0.736 µM)
MIC [4]: 0.5 µg/mL (≈ 0.736 µM)
MIC [5]: 1 µg/mL (≈ 1.47 µM)
MIC [6]: 1 µg/mL (≈ 1.47 µM)
MIC [7]: 2 µg/mL (≈ 2.95 µM)
MIC [8]: 0.12 µg/mL (≈ 0.177 µM)
MIC [9]: 8 µg/mL (≈ 11.8 µM)
MIC [10]: 4 µg/mL (≈ 5.89 µM)
MIC [11]: 1 µg/mL (≈ 1.47 µM)
MIC [12]: 0.25 µg/mL (≈ 0.368 µM)
MIC [13]: 0.5 µg/mL (≈ 0.736 µM)
MIC [14]: 0.5 µg/mL (≈ 0.736 µM)
MIC [15]: > 50 µg/mL
MIC [16]: > 50 µg/mL
MIC (Mycoplasma gallisepticum): 0.78 µg/mL (≈ 1.15 µM)
MIC (Mycoplasma hyorhinis): 50 µg/mL (≈ 73.6 µM)
MIC (Mycoplasma synoviae): > 50 µg/mL
MIC [17]: 0.78 µg/mL (≈ 1.15 µM)
MIC [18]: 1.56 µg/mL (≈ 2.3 µM)
MIC [19]: 1.56 µg/mL (≈ 2.3 µM)
MIC [20]: 0.78 µg/mL (≈ 1.15 µM)
MIC [21]: 1.56 µg/mL (≈ 2.3 µM)
MIC [22]: 1.56 µg/mL (≈ 2.3 µM)
MIC [23]: 0.78 µg/mL (≈ 1.15 µM)
MIC [24]: 1.56 µg/mL (≈ 2.3 µM)
MIC (Staphylococcus aureus): 0.39 µg/mL (≈ 0.574 µM)
MIC (Streptococcus sp. 80): 0.78 µg/mL (≈ 1.15 µM)
ED50 ([25]; C203, po, read-out: ED50 Oral): > 100 mg/kg
ED50 ([25]; C203, sc, mice, subcutaneous, mg/kg × 2, doses given 1 and 4 hours postinfection, read-out: ED50 Subcutaneous): > 12.5 mg/kg
Number of Deaths/Number Treated (Pasteurella multocida): 8/10
